# Values of other authors as cited in US20240082153A1, “IVERMECTIN FORMULATION IN ORAL SOLUTION” (PROCAPS S.A., priority 2020, published 2024).
# Tests used:
# SARS-CoV-2 = settings: in vitro, after 48 hours
substance,measurement,setting,value
Ivermectin,reduction in viral RNA,SARS-CoV-2,"approximately 5,000 fold"
same,solubility in water,,practically insoluble in water
